What was measured:
Aedes aegypti [1] = assay: Warm Body assay, repellence of mosquito landing on treated warm body; type: in vivo; details: for reduction of the number of mosquito landing: since the dose of 0.0016%
Anopheles gambiae = assay: as above; type: in vivo
Method: Anopheles gambiae is also a model organism as it is anthropophilic and transmits malaria.
The controlling effect according to the present invention was assessed using an adapted Warm Body assay as defined in Kröber T, Kessler S, Frei J, Bourquin M, Guerin PM. 2010. J Am Mosq Control Assoc. 26:381-386. In this in-vitro assay the number of mosquito landing on a warm body, simulating an attractive host treated with the tested stimuli, was measured in order to assess the repellence effect.
On the sandblasted glass Petri dish covering the warm body (28.3 cm^2), 100 μL of the compounds diluted at different concentrations in ethanol was applied. The number of mosquito landing on the warm body was counted for each stimulus and pure ethanol (solvent) as control.

Aedes aegypti [2] = assay: Arm-in-cage test on human volunteers; type: in vivo; details: arm treated with 20%, three human volunteers
Method: The controlling effect, repellence & spatial repellence, according to the present invention is also determined according to an arm in the box method adapted from the WHO Guidelines for efficacy repellents testing of mosquito for human skin (WHO/CDS/NTD/WHOPES/2009.4). The readiness of 100 hungry female mosquitoes A. aegypti to a test substance is assessed by comparing the results of an untreated arm to a treated in when inserted into the cage (40×40×40 cm) for 30 seconds (negative control) three times. Further information is provided in the accompanying examples.
Arm-In-Cage Test is the Large-Scale Test Used to Assess on Human Volunteer the Repellent Efficacy on Mosquitoes.
The Arm in the box method was adapted from the WHO Guidelines for efficacy testing of mosquito repellents for human skin (WHO/CDS/NTD/WHOPES/2009.4). The readiness of 100 hungry female mosquitoes A. aegypti to probe is assessed by inserting an untreated arm into the cage (40×40×40 cm) for 30 seconds (negative control) three times (once at the beginning, once at the fourth hour and once at the eighth hour), to determine probing activity. Then, the product is applied onto the skin of the forearm of a human volunteer (1 mL per 600 cm^2) and after 5 minutes, this arm is inserted into the cage and exposed for 3 minutes. The assay take place in temperature (27±2° C.) and humidity (80±10% RH) regulated room on three different volunteers.

Ixodes ricinus = assay: Warm Plate Assay, tick repellence

Structure (SMILES) | Percentage of repellence of mosquitoes Aedes aegypti landing on the warm body (Aedes aegypti [1]; 0.016 mg/mL) [%] | Percentage of repellence of mosquitoes Aedes aegypti landing on the warm body (Aedes aegypti [1]; 0.4 mg/mL) [%] | Percentage of repellence of mosquitoes Aedes aegypti landing on the warm body (Aedes aegypti [1]; 10 mg/mL) [%] | Percentage of repellence of mosquitoes Anopheles gambiae landing on the warm body (Anopheles gambiae; 4.47 mg/mL) [%] | Percentage of repellence of mosquitoes Anopheles gambiae landing on the warm body (Anopheles gambiae; 10 mg/mL) [%] | Percentage of repellence of mosquitoes Aedes aegypti landing on the warm body (Aedes aegypti [1]; 0.0032 mg/mL) [%] | Percentage of repellence of mosquitoes Aedes aegypti landing on the warm body (Aedes aegypti [1]; 0.08 mg/mL) [%] | Percentage of repellence of mosquitoes Aedes aegypti landing on the warm body (Aedes aegypti [1]; 2 mg/mL) [%] | also measured
CC(C)(O)Cc1ccc(CCC=O)cc1 [compound 867, 3-[4-(2-hydroxy-2-methylpropyl)phenyl]propanal] | 13 | 27 | 81 | – | – | – | – | – | –
COc1ccc(CC(C)C=O)cc1 (stereo not shown) [compound 251, 3-(4-methoxyphenyl)-2-methylpropanal] | 0 | 79 | 89 | 100 | 96 | 0 | 40 | 96 | Percentage of repellence of mosquitoes Aedes aegypti landing on the warm body (Aedes aegypti [1]; 0.0071 mg/mL): 0%; Percentage of repellence of mosquitoes Aedes aegypti landing on the warm body (Aedes aegypti [1]; 0.0357 mg/mL): 61%; Percentage of repellence of mosquitoes Aedes aegypti landing on the warm body (Aedes aegypti [1]; 0.053 mg/mL): 54%; Percentage of repellence of mosquitoes Aedes aegypti landing on the warm body (Aedes aegypti [1]; 0.119 mg/mL): 52%; Percentage of repellence of mosquitoes Aedes aegypti landing on the warm body (Aedes aegypti [1]; 0.178 mg/mL): 71%; Percentage of repellence of mosquitoes Aedes aegypti landing on the warm body (Aedes aegypti [1]; 0.267 mg/mL): 97%; Percentage of repellence of mosquitoes Aedes aegypti landing on the warm body (Aedes aegypti [1]; 0.598 mg/mL): 93%; Percentage of repellence of mosquitoes Aedes aegypti landing on the warm body (Aedes aegypti [1]; 0.89 mg/mL): 99%; Percentage of repellence of mosquitoes Aedes aegypti landing on the warm body (Aedes aegypti [1]; 4.47 mg/mL): 97%; percentage of repellence compared to untreated arm (mean ± SD) (Aedes aegypti [2]; 5 min post-application): 100% ±; percentage of repellence compared to untreated arm (mean ± SD) (Aedes aegypti [2]; 1 h post-application): 99.84% ±; percentage of repellence compared to untreated arm (mean ± SD) (Aedes aegypti [2]; 2 h post-application): 98.82% ±; percentage of repellence compared to untreated arm (mean ± SD) (Aedes aegypti [2]; 3 h post-application): 95.59% ±; percentage of repellence compared to untreated arm (mean ± SD) (Aedes aegypti [2]; 4 h post-application): 87.3% ±; percentage of repellence compared to untreated arm (mean ± SD) (Aedes aegypti [2]; 5 h post-application): 81.02% ±; percentage of repellence compared to untreated arm (mean ± SD) (Aedes aegypti [2]; 6 h post-application): 73.75% ±; percentage of repellence compared to untreated arm (mean ± SD) (Aedes aegypti [2]; 7 h post-application): 65.56% ±; percentage of repellence compared to untreated arm (mean ± SD) (Aedes aegypti [2]; 8 h post-application): 64.04% ±
COC(C)(C)c1ccc(CCC=O)cc1 [compound 681, 3-[4-(2-methoxy-2-propanyl)phenyl]propanal] | 0 | 49 | 92 | – | – | 0 | 31 | 89 | Percentage of repellence of ticks Ixodes ricinus on the warm plate (Ixodes ricinus; 0.08 mg/mL): 0.0%; Percentage of repellence of ticks Ixodes ricinus on the warm plate (Ixodes ricinus; 0.4 mg/mL): 13.3%; Percentage of repellence of ticks Ixodes ricinus on the warm plate (Ixodes ricinus; 2 mg/mL): 92.3%; Percentage of repellence of ticks Ixodes ricinus on the warm plate (Ixodes ricinus; 10 mg/mL): 92.0%; repellence of ticks Ixodes ricinus (Ixodes ricinus; 0.2% of stimulus applied): above 90%; repellence of ticks Ixodes ricinus (Ixodes ricinus; 1% of stimulus applied): above 90%
Cc1cc(C(C)(C)C)ccc1CCC=O [compound 859, 3-[2-methyl-4-(2-methyl-2-propanyl)phenyl] propanal] | 21 | 65 | 98 | – | – | – | – | – | –
CC(C)c1cccc(C(C)CC=O)c1 (stereo not shown) [compound 1389, 3-(3-propan-2-ylphenyl)butanal] | 0 | 81 | 90 | 58 | 96 | 11 | 53 | 87 | Percentage of repellence of mosquitoes Aedes aegypti landing on the warm body (Aedes aegypti [1]; 0.0357 mg/mL): 8%; Percentage of repellence of mosquitoes Aedes aegypti landing on the warm body (Aedes aegypti [1]; 0.053 mg/mL): 74%; Percentage of repellence of mosquitoes Aedes aegypti landing on the warm body (Aedes aegypti [1]; 0.178 mg/mL): 30%; Percentage of repellence of mosquitoes Aedes aegypti landing on the warm body (Aedes aegypti [1]; 0.89 mg/mL): 88%; Percentage of repellence of mosquitoes Aedes aegypti landing on the warm body (Aedes aegypti [1]; 4.47 mg/mL): 84%
CC(C)(C)c1ccc(CCC=O)cc1 [compound 294, 3-(4-tert-butylphenyl)propanal] | 57 | 54 | 96 | 96 | 96 | – | – | – | Percentage of repellence of mosquitoes Anopheles gambiae landing on the warm body (Anopheles gambiae; 0.178 mg/mL): 42%; Percentage of repellence of mosquitoes Anopheles gambiae landing on the warm body (Anopheles gambiae; 0.267 mg/mL): 14%; Percentage of repellence of mosquitoes Anopheles gambiae landing on the warm body (Anopheles gambiae; 0.4 mg/mL): 55%; reduction of the number of mosquito landing (Aedes aegypti [1]): by half
COC(C)(C)c1ccc(CCC=O)c(C)c1 [compound 875, 3-[4-(2-methoxy-2-propanyl)-2-methylphenyl]propanal] | 60 | 81 | 96 | 97 | 100 | 39 | 24 | 81 | Percentage of repellence of mosquitoes Anopheles gambiae landing on the warm body (Anopheles gambiae; 0.178 mg/mL): 69%; Percentage of repellence of mosquitoes Anopheles gambiae landing on the warm body (Anopheles gambiae; 0.267 mg/mL): 66%; Percentage of repellence of mosquitoes Anopheles gambiae landing on the warm body (Anopheles gambiae; 0.4 mg/mL): 93%; mosquitoes repelled (Anopheles gambiae; lowest concentration tested, 0.0178%): > 60%; reduction of the number of mosquito landing (Aedes aegypti [1]): by half
